# Several values for one entry are separate records, joined by “and”; a condition that tells them apart may be missing. Identical values can stand only once.
# Target: T1, THIK-1 T237A (Homo sapiens, UniProt Q9HB14, T237A)
# T1 construct: expressed in transfected cells; host or cells: Xenopus oocytes (mRNA injection)
# T1 sequence (Q9HB14 1-408 T237A): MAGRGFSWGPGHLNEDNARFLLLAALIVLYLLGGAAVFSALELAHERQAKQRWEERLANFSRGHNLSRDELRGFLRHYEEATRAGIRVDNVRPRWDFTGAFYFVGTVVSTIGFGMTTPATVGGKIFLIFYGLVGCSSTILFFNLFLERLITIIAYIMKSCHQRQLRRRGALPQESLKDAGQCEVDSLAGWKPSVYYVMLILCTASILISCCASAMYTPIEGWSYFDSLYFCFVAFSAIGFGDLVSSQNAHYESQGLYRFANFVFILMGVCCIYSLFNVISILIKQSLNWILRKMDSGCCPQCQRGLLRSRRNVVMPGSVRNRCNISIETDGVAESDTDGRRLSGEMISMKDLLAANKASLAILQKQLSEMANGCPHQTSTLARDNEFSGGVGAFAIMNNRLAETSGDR
# Assay: Inside-out excised patch recordings, oocytes, THIK-1 T237A mutant
# Format: cell-based
# Excerpt: Human K2P13.1 THIK-1 (GenBank accession number: NM_022054) and human K2P12.1 THIK-2 (NM_022055.1) were used in this study. For functional expression studies, the respective K^+ channel subtype coding sequences were subcloned into the oocyte expression vector pSGEM or the dual-purpose expression vector pFAW[41] and verified by sequencing. All mutant channels were obtained by site-directed mutagenesis and verified by sequencing. To increase surface expression and macroscopic currents, measurements of THIK-2 channels used a mutated ER retention motif, (R11A R12A R14A R15A R16A; THIK-2*)[20]. Vector DNA was linearized with NheI or MluI, and mRNA was synthesized in vitro using the SP6 or T7 AmpliCap Max High Yield Message Maker Kit (Cellscript, USA) or HiScribe T7 ARCA mRNA Kit (New England Biolabs).
# Two-electrode voltage–clamp (TEVC) studies were performed in Xenopus oocytes. All animal use conformed to the Guide for the Care and Use of Laboratory Animals (NIH Publication 85–23), and all experiments using Xenopus toads were approved by the local ethics panels. Oocytes were stored at 17 °C in ND96 recording solution composed of (in mM): 96 NaCl, 2 KCl, 1.8 CaCl2, 1 MgCl2, 5 HEPES (pH 7.5 adjusted with NaOH and HCl), supplemented with Na-pyruvate (275 mg L^–1), theophylline (90 mg L^–1) and gentamicin (50 mg L^–1). Oocytes were injected with 1 ng mRNA for WT or mutant channels, and were incubated for 24–48 h at 17 °C. Two-electrode voltage clamp recordings were then performed as previously described[42],[43]. For macroscopic patch–clamp measurements, oocytes were obtained as described above incubated at 17 °C in a solution containing (mM): 54 NaCl, 30 KCl, 2.4 NaHCO3, 0.82 MgSO4 ×7 H2O, 0.41 CaCl2, 0.33 Ca(NO3)2 ×4 H2O and 7.5 TRIS (pH 7.4 adjusted with NaOH and HCl) for 1–4 days before use. Excised patch recordings in inside-out configuration conditions were performed at room temperature. Patch pipettes were made from thick-walled borosilicate glass GB 200TF-8P (Science Products), had resistances of 0.2–0.5 MΩ (tip diameter, 10–25 µm) and filled with a pipette solution (in mM): 120 KCl, 10 HEPES and 3.6 CaCl2 (pH 7.4 adjusted with KOH and HCl). Intracellular bath solutions and compounds were applied to the cytoplasmic side of excised patches for the various K^+ channels through a gravity flow multi-barrel pipette system. The intracellular solution had the following composition (in mM): 120 KCl, 10 HEPES, 2 EGTA and 1 pyrophosphate (pH adjusted with KOH and HCl). Currents were recorded with an EPC10 amplifier (HEKA Electronics) and sampled at 10 kHz or higher, with filtering set to 3 kHz (–3 dB) or higher, as appropriate for sampling rate. For measurements of GPCR activation, whole-cell currents were recorded for THIK-1 in transiently transfected HEK-293 cells. Cells were stimulated by a ramp protocol between −100 and +60 mV (holding potential, −80 mV). The pipette solution was composed of (in mM): 140 KCl, 2 MgCl2, 1 CaCl2, 2.5 EGTA and 10 HEPES (pH 7.3 adjusted with KOH and HCl). The extracellular bath solution had the following composition (in mM): 135 NaCl, 5 KCl, 2 MgCl2, 2 CaCl2, 10 glucose and 10 HEPES pH (pH 7.3 adjusted with NaOH and HCl). Oxotremorine M (Oxo-M) was added to extracellular bath solution to obtain the final concentration. Single-channel currents were recorded with an Axopatch 200B amplifier through a Digidata 1440A digitizer (Molecular Devices). Data were filtered at 2 kHz and recorded at a 200-kHz sampling rate with the program Clampex (Molecular Devices). Pipette solution and bath solution for cell-attached recordings contained (in mM): 140 KCl, 2 MgCl2, 1 CaCl2 and 10 HEPES (pH 7.4 adjusted with KOH and HCl). For inside-out recordings, the bath solution contained (in mM): 140 KCl, 2 MgCl2, 1 CaCl2 and 10 HEPES (pH 7.2 adjusted with KOH and HCl). All experiments were conducted at room temperature. […]
compound,measurement,setting,value
FC(F)(F)C(Cl)Br (stereo not drawn) [halothane],Inhibition (%),"3.0 mM halothane, T237A, individual recordings",33.289% and 24.219% and 32.586% and 20.723% and 17.184% and 21.968% and 14.425% and 17.317% and 20.857% and 12.818% and 13.953% and 26.198% and 19.691% and 2.253% and 19.772% and 18.717% and 25.052% and 20.656% and 33.770% and 18.734% and 25.692% and 28.421% and 33.333%
same,inhibition at 152 µM,"halothane 0.152 mM, THIK-1 T237A",2.14%
same,inhibition at 304 µM,"halothane 0.304 mM, THIK-1 T237A",5.74%
same,inhibition at 1520 µM,"halothane 1.52 mM, THIK-1 T237A",14%
same,inhibition at 3040 µM,"halothane 3.04 mM, THIK-1 T237A",21.8%
same,inhibition at 15200 µM,"halothane 15.2 mM, THIK-1 T237A",61.5%
"FC(F)OC(Cl)C(F)(F)F (stereo not drawn) [Isoflurane, isoflurane]",Inhibition (%),"4.9 mM Isoflurane, T237A, individual recordings",17.406% and 8.395% and 11.371% and 16.439% and 18.927% and 20.492% and 11.299%
same,inhibition at 242 µM,"isoflurane 0.242 mM, THIK-1 T237A",3.32%
same,inhibition at 485 µM,"isoflurane 0.485 mM, THIK-1 T237A",6.3%
same,inhibition at 2420 µM,"isoflurane 2.42 mM, THIK-1 T237A",10.5%
same,inhibition at 4850 µM,"isoflurane 4.85 mM, THIK-1 T237A",14.9%
same,inhibition at 24200 µM,"isoflurane 24.2 mM, THIK-1 T237A",41.2%
"FCOC(C(F)(F)F)C(F)(F)F [Sevoflurane, sevoflurane]",Inhibition (%),"0.24 mM Sevoflurane, T237A, individual recordings",3.46% and 13.30% and 10.43% and 14.31% and 9.40% and 9.31%
same,inhibition at 240 µM,"0.24 mM Sevoflurane, T237A, mean",10%
same,inhibition at 23 µM,"THIK-1 T237A, 0.023 mM sevoflurane",2.46%
same,inhibition at 47 µM,"THIK-1 T237A, 0.047 mM sevoflurane",5.91%
same,inhibition at 468 µM,"THIK-1 T237A, 0.468 mM sevoflurane",21.7%
same,inhibition at 2340 µM,"THIK-1 T237A, 2.34 mM sevoflurane",65.6%
"CCCCC[N+](CCCCC)(CCCCC)CCCCC [TPenA, tetrapentylammonium]",IC50,"TPenA IC50, T237A mutant",751 ± 69 µM
same,IC50,"TPenA IC50, THIK-1 T237A, individual recordings",1130 µM and 808 µM and 597 µM and 535 µM and 580 µM and 782 µM and 1030 µM and 536 µM and 917 µM and 590 µM
same,IC50,"TPenA IC50, THIK-1 T237A, mean",751 µM

# From PMC12263422, “Cryo-EM structure of the human THIK-1 K2P K^+ channel reveals a lower Y gate regulated by lipids and anesthetics” (Nature Structural & Molecular Biology, 2025)
